Results as given in article doi:10.1101/415984v3 (biorxiv, 2018).
pKd: −log10 of the molar value.

Assays:
[1] = target: T1, dFABP (Drosophila brain-type FABP) (Drosophila melanogaster, UniProt Q9VGM2); assay: intrinsic tyrosine fluorescence melting; format: binding; details: GuHCl-purified dFABP; protein:OA 1:2; 20 mM Tris pH 8.0, 1 mM beta-ME
T1 sequence (Q9VGM2 1-130): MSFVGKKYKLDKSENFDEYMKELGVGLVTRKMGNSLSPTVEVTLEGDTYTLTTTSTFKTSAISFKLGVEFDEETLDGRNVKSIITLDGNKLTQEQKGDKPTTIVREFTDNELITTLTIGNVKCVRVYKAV

[2] = target: T1, dFABP (Drosophila brain-type FABP); assay: isothermal titration calorimetry; format: binding

- change in Tm [1]: ~ 5 °C
- pKd [2]: ~5.80
SMILES: CCCCCCCC/C=C\CCCCCCCC(=O)O [OA, oleic acid]
